A word on the IC50: it is the concentration that gives 50% inhibition.

The target in assay [1] is Fibroblast growth factor receptor 4 (Homo sapiens, UniProt P22455). In words: 5) 10 μL of EDTA and a test solution comprising labeled antibody were added, and the plate was incubated for 1 hour at room temperature. […] 7) The inhibition rates were calculated according to the fluorescence signal values.
Assay [2] has as its target Fibroblast growth factor receptor 1 (Homo sapiens, UniProt P11362). Briefly: Enzymologic Experiment of FGFR1: In this experiment, the inhibitory effect of the compounds on FGFR1 kinase activity was tested by a fluorescence resonance energy transfer (TR-FRET) method, and the half maximal inhibitory concentration (IC50) of the compounds on the FGFR1 kinase activity was determined. 1) 1˜5 μL of FGFR1 enzyme solution was added to a 384-well plate, and the final concentration of the enzyme was 0.1˜5 nM. 2) 1˜5 μL of diluted solution in gradient of the compound was added. 3) 1˜5 μL of a substrate mixture containing substrate polypeptide with a final concentration of 5˜50 nM and ATP with a final concentration of 10˜200 μM was added. 4) The mixture was incubated for 0.5˜3 hours at room temperature. 5) 10 μL of EDTA and a test solution comprising labeled antibody were added, and the plate was incubated for 1 hour at room temperature. 6) The fluorescence signal values of each plate were determined by a microplate reader at 665 nm.7) The inhibition rates were calculated according to the fluorescence signal values.

SMILES strings stand for the structures.

Fibroblast growth factor receptor 1, sequence (P11362 whole entry): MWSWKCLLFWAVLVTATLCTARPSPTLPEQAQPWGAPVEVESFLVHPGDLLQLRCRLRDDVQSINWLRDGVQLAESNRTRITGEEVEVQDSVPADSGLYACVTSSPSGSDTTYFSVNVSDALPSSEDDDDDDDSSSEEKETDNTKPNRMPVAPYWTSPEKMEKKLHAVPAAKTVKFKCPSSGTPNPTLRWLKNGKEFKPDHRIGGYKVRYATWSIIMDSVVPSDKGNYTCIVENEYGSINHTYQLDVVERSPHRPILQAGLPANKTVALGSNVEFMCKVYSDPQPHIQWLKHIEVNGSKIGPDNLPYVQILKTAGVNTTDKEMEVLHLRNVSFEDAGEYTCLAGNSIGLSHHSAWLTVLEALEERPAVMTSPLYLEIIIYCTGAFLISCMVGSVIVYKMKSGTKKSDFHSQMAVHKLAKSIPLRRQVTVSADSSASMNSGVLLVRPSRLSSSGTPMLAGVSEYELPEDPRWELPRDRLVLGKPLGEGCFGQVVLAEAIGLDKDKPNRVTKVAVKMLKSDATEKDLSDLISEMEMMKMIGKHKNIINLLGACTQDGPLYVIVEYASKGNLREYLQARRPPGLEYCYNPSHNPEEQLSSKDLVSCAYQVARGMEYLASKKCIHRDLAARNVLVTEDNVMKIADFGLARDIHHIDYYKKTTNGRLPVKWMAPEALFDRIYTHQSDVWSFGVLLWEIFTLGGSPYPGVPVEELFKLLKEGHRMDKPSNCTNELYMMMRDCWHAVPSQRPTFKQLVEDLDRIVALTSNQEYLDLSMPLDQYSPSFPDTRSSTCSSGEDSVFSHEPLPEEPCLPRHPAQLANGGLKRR
Fibroblast growth factor receptor 4, sequence (P22455 whole entry): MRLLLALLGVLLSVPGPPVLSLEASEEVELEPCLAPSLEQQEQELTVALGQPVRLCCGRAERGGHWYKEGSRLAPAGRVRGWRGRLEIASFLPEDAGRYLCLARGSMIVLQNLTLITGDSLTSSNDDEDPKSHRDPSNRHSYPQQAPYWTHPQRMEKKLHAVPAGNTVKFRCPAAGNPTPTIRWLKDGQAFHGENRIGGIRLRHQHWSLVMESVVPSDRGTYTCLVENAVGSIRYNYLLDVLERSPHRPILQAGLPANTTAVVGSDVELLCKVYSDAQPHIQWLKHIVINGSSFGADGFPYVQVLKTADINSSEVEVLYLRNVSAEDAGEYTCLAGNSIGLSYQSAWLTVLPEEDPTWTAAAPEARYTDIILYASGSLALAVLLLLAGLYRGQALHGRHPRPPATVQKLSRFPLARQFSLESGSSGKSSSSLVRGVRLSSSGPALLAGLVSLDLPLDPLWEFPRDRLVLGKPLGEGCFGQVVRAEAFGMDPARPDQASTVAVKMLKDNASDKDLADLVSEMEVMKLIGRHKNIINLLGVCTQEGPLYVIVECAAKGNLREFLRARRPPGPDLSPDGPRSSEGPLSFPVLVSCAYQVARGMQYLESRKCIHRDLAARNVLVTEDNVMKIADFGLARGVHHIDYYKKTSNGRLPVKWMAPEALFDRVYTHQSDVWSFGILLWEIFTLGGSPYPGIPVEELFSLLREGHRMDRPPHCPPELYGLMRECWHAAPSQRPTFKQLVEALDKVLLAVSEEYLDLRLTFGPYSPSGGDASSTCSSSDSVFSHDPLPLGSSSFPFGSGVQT

Turning to `COC[C@@H](C)Nc1cc(NC(=O)N2CCCc3cc(CN4CCCCOC4=O)c(C=O)nc32)ncc1C#N`, the IC50 in assay [1] is 0.00096 µM.

In the case of `CO[C@@H]1CCCC1Nc1cc(NC(=O)N2CCCc3cc(CN4CCOCC4=O)c(C=O)nc32)ncc1C#N` (stereo partly drawn), in assay [2], the IC50 is greater than 10 µM. `COCCNc1cc(NC(=O)N2CCCc3cc(CN4CCCCOC4=O)c(C=O)nc32)ncc1C#N`: the IC50 in assay [2] is greater than 10 µM.

The values above are taken from ChEMBL document CHEMBL5729737, “FGFR4 inhibitor, preparation method therefor, and applications thereof” (2023).
